Results reported in patent US8008260B2, “Methods of protecting against apoptosis using lipopeptides” (Cleveland Clinic Foundation, priority 2005, dated 2011).
Peptide text beside a SMILES is read from it. * marks the point of attachment. Propyl(2R-PamO,3-PamO) = CCCCCCCCCCCCCCCC(=O)OC[C@H](C*)OC(=O)CCCCCCCCCCCCCCC

Columns and labels:
[1] = Solubility of the lipopeptides
ICR mice = experiment: NOAEL determination, i.p. injection of increasing doses, two-week observation; assay type: in vivo
Method: The dose of NOAEL (No Obvious Adverse Effects Level) was determined by injecting intraperitoneally (i.p) ICR mice with the increasing doses of CBLB601 (0.3, 1, 3, 10, 30, 60, 100 μg/mouse). Control mice were injected with PBS. […] During the first week they were weighed daily. […] Thus, NOAEL for CBLB601 was determined to be 30 μg/mouse.

NIH Swiss mice = experiment: Protection from lethal total body gamma radiation, lipopeptides s.c. 30 minutes prior; assay type: in vivo; conditions: for survival post-treatment: <0.1 MTD
Method: Lipopeptides are potent activators of NF-κB and, as such, may act as inhibitors of apoptotic death. To determine whether lipopeptides function as radioprotectants, various lipopeptides were initially tested to determine the maximal tolerable dose (MTD). Various lipopeptides were then tested to measure their protective effect in NIH Swiss mice to lethal hematopoietic or nd gastrointestinal syndromes after exposure to 10 Gy or 13-15 Gy of total body gamma radiation, respectively. Lipopeptides (0.3-10 μg/mouse) were administered subcutaneously 30 minutes prior to irradiation.
The results of a representative experiment using R-PAM2C-SKKKK (SEQ ID NO: 8) (hereafter, this compound is called, CBLB601) at <0.1 MTD are shown in FIG. 3. As expected, control mice irradiated with 10 Gy died between 11 and 15 days post-treatment, while all animals that received CBLB601 lived beyond 35 days post-treatment. Similarly, control mice irradiated with 13 Gy died between 6 and 10 days post-treatment, while all but one animal that received CBLB601 lived beyond 35 days post-treatment. The radioprotective ability of CBLB601 was further analyzed by measuring the effect of radiation on spleen size.

Q: For `CCCCCCCCCCCCCCCC(=O)OC[C@H](CSC[C@H](N)C(=O)N[C@@H](CO)C(=O)N[C@@H](CCCCN)C(=O)N[C@@H](CCCCN)C(=O)N[C@@H](CCCCN)C(=O)N[C@@H](CCCCN)C(=O)O)OC(=O)CCCCCCCCCCCCCCC` [CBLB601, R-PAM2C-SKKKK] (H-C(Propyl(2R-PamO,3-PamO))SKKKK-OH), which Solubility [1] is on record?
A: Excellent

Q: What about the “differences between treated and control mice” value (ICR mice; 30 μg dose i.p.) of the same compound?
A: no noticeable differences

Q: What about the morbidity (ICR mice; 60 μg dose i.p., around 3-4 days after treatment) of the same compound?
A: signs of morbidity, such as slow motion and scruffy fur

Q: What about the mortality (ICR mice; 100 μg/mouse i.p., 1-2 days post-treatment) of the same compound?
A: Mortality was observed

Q: What about the “body weight versus control mice” value (ICR mice; 0.3-100 μg/mouse i.p., weighed daily in first week) of the same compound?
A: no differences in weight

Q: What about the “NOAEL (No Obvious Adverse Effects Level)” value (ICR mice; i.p., ICR mice) of the same compound?
A: 30 μg/mouse

Q: What about the survival post-treatment (NIH Swiss mice; 10 Gy, all animals) of the same compound?
A: > 35 days

Q: What about the “effect of radiation on spleen size” value (NIH Swiss mice; 13 Gy total body gamma irradiation (FIG. 4)) of the same compound?
A: significantly less reduction in the size of the spleen

Q: What about the survival post-treatment (NIH Swiss mice; 13 Gy, all but one animal) of the same compound?
A: > 35 days

Q: And the “protection of the thymus from radiation” value (NIH Swiss mice; data not shown)?
A: protected the thymus from radiation
